{"source": "patent US9375436B2", "about": "“Androgen treatment in females” (priority 2004, dated 2016)", "key": {"[1]": {"test_system": "proven poor responders to ovarian stimulation with gonadotropins", "details": "80 mg micronized DHEA for two months; five poor responders, six IVF cycles; cited from earlier work"}, "[2]": {"assay": "Case report: DHEA substitution in probable 17,20-desmolase deficiency (Patient B, Example 5)", "type": "in vivo, human", "details": "human, in vivo, oral, normal (130-980), read-out: DHEA level", "method": "(§1) In a further study, a case of probable 17, 20-desmolase deficiency, resulting in abnormally low estradiol, DHEA, androstenedione and testosterone levels, is presented in a person with a clinical history of, initially, unexplained infertility and, later, prematurely aging ovaries.\n(§2) In July of 2003, the patient was started on 25 mg daily of micronized DHEA. After five weeks of treatment, DHEA, DHEA-S and androstenedione levels had normalized into mid-ranges. (Even though androstenedione is partially produced through the activity of 17,20-desmolase from 17-hydroxyprogesterone, part is also derived from DHEA through the activity of 3-beta hydroxysteroid dehydrogenase [Speroff et al., 1999a]. The normalization of androstenedione, after DHEA administration, therefore, also speaks for an underlying 17,20-desmolase defect, and not a 3-beta hydroxysteroid dehydrogenase deficiency.) In the third and fourth month, following the start of DHEA supplementation, the patient ovulated spontaneously with estradiol levels of 268 and 223 pg/ml (Table 2), respectively, measured on the day of LH surge.\n(§3) On Jan. 28, 2004, and after DHEA therapy of approximately six months, a fourth IVF cycle was initiated. Their baseline FSH level in that cycle was 9.6 mIU/ml, estradiol 56 pg/ml. Stimulation took place with 300 IU of recombinant FSH (without hMG) and with an agonist flare protocol. […] A triplet pregnancy was established with heart beats. Two, out of the three fetuses lost heart beat spontaneously, and the patient delivered by cesarean section, at term, a healthy singleton infant."}, "[3]": {"test_system": "person with prematurely aging ovaries", "assay": "Case report: DHEA substitution in probable 17,20-desmolase deficiency (Patient B, Example 5)", "type": "in vivo, human", "details": "for Estradiol periovulatory: spontaneous ovulation", "method": "as §1, §2, §3"}, "[4]": {"assay": "Side effects and complications of DHEA supplementation", "type": "in vivo, human", "method": "We maintained in all studies and treatment protocols the oral medication dosage of about 25 mg TID (three times a day for a total of about 75 mg per day), used by our index patient. […] Studies to determine best dosaging of DHEA in the treatment of DOR have so far not been performed.\nOvarian stimulation was identical for study and control groups and comprised microdose agonist flare, followed by maximal dosage gonadotropin stimulation, using about 300-450 IU of FSH and about 150 IU of HMG. Study patients received DHEA continuously until a positive pregnancy test was obtained or until the patient dropped out of treatment. DHEA and DHEAS levels were monitored monthly, and patients were interviewed at each visit about adverse reactions to DHEA supplementation."}, "[5]": {"test_system": "women with diminished ovarian reserve", "assay": "Gender of offspring and embryos conceived on DHEA treatment (Example 6)", "type": "in vivo, human", "method": "The treatment protocol for long-term supplementation with DHEA that may improve oocyte and embryo quantity, quality, pregnancy rates and time to conception in women with diminished ovarian reserve, involves 25 mg of micronized, pharmaceutical grade DHEA, TID will usually uniformly raise levels of unconjugated DHEA above about 350 ng/dl, and, therefore, raise baseline testosterone. Estradiol baseline levels may also be raised.\nA total of 19 pregnancies were recorded with 16 singleton and 3 twin pregnancies. The medical records of all 19 women were reviewed in order to determine whether they conceived spontaneously, defined as including pregnancies conceived with intrauterine inseminations, or by IVF. If conception had occurred by IVF, it was recorded whether fertilization was spontaneous or by intracytoplasmic sperm injection (ICSI).\nAs a control group, seven women were selected who had undergone one IVF cycle with preimplantation genetic diagnosis (PGD), while for at least 60 days on DHEA supplementation, but had not conceived. The PGD data, defining each embryo's gender, were recorded. Statistics were performed using a binomial runs test, comparing seen distributions with an expected distribution of 50 percent, with p≦0.05 defining significance."}, "[6]": {"test_system": "patients with prior clomiphene citrate failures", "assay": "Toronto insemination cycles after DHEA (reported study)", "type": "in vivo, human", "details": "DHEA pregnancies, insemination cycles with clomiphene citrate/letrozole and FSH", "method": "In cooperation with Robert F Casper's group at Toronto's Mount Sinai Hospital, they recently reported on 47 patients with prior clomiphene citrate failures who were supplemented with 75 mg daily of DHEA for at least 60 days prior to inseminations, with stimulation by either clomiphene citrate or letrozole in combination with FSH. Controls were 46 women, matched by age and baseline FSH without DHEA supplementation.\nThe possibility of synergistic gonadotropin and DHEA effects is supported by reanalysis of the Toronto groups' previously noted insemination cycles, stimulated with a clomiphene citrate/letrozole and FSH protocols. […] Final conclusions await, however, further investigations."}, "[7]": {"details": "January 2004, 4th IVF cycle start, DHEA approximately six months"}, "[8]": {"details": "fourth IVF cycle after DHEA therapy of approximately six months"}, "[9]": {"details": "15 offspring of pregnancies achieved through IVF"}, "[10]": {"details": "53 embryos from 17 IVF cycles, women on DHEA, all ICSI"}, "[11]": {"details": "sixteen singleton pregnancies conceived on DHEA for at least 60 days"}}, "note": "Values joined by “and” are separate entries in the source; they are usually repeats but may differ in a detail not shown here. Equal values may be shown once. “Also recorded” adds a separate entry of the source.", "data": [{"smiles": "C[C@]12CC[C@H](O)CC1=CC[C@@H]1[C@@H]2CC[C@]2(C)C(=O)CC[C@@H]12", "note": "[DHEA, Dehydroepiandrosterone]", "values": [{"measurement": "response to ovarian stimulation compared with prior unsupplemented cycle", "setting": "[1]", "value": "improved responsiveness"}, {"measurement": "concentration at 5 months", "setting": "[2]; 25 mg daily, December 2003, on DHEA", "value": 278, "unit": "ng/mL"}, {"measurement": "concentration at 5 weeks", "setting": "[2]; July 2003 after DHEA treatment start, 25 mg daily micronized", "value": 2.96, "unit": "ng/mL"}, {"measurement": "Testosterone free", "setting": "[3]; December 2003, on DHEA, normal (1-21)", "value": 2, "unit": "pg/mL"}, {"measurement": "Testosterone free and weekly bound", "setting": "[3]; December 2003, on DHEA, normal (3-29)", "value": 4, "unit": "ng/dL"}, {"measurement": "Estradiol baseline", "setting": "[3]; [7]", "value": 56, "unit": "pg/mL"}, {"measurement": "FSH baseline", "setting": "[3]; [7]", "value": 9.6, "unit": "mIU/ml"}, {"measurement": "FSH", "setting": "[3]; January 2004, on DHEA, first value", "value": 18, "unit": "mIU/ml"}, {"measurement": "Androstenedione level", "setting": "[3]; July 2003 after DHEA treatment start, normal (65-270)", "value": 121, "unit": "ng/dL"}, {"measurement": "Estradiol", "setting": "[3]; November 2003, on DHEA", "value": 38, "unit": "pg/mL"}, {"measurement": "FSH", "setting": "[3]; November 2003, on DHEA", "value": 17, "unit": "mIU/ml"}, {"measurement": "Estradiol", "setting": "[3]; October 2003, on DHEA", "value": 44, "unit": "pg/mL"}, {"measurement": "FSH", "setting": "[3]; October 2003, on DHEA", "value": 14.7, "unit": "mIUI/ml"}, {"measurement": "Estradiol periovulatory", "setting": "[3]; October 2003, on DHEA", "value": "223 pg/mL and 224 pg/mL"}, {"measurement": "Estradiol periovulatory", "setting": "[3]; September 2003, on DHEA", "value": 268, "unit": "pg/mL"}, {"measurement": "oocytes retrieved", "setting": "[3]; [8]", "value": 8}, {"measurement": "peak estradiol level", "setting": "[3]; [8]", "value": 1764, "unit": "pg/mL"}, {"measurement": "side effects", "setting": "[4]; oral DHEA about 25 mg TID", "value": "small and primarily relate to androgen effects; also recorded: mild transient acne on the face, chest or back, oily skin and mild hair loss; also recorded: appears safe and results in only minor side effects; also recorded: limited to oily skin, rarely mild acne vulgaris and mild hair loss"}, {"measurement": "complications", "setting": "[4]; over 1,000 patients supplemented with DHEA", "value": "not encountered even a single complication of serious clinical significance"}, {"measurement": "female offspring", "setting": "[5]; [9]", "value": 3}, {"measurement": "male offspring", "setting": "[5]; [9]", "value": 12}, {"measurement": "female embryos by PGD", "setting": "[5]; [10]", "value": 26}, {"measurement": "male embryos by PGD", "setting": "[5]; [10]", "value": 27}, {"measurement": "female offspring, final gender distribution", "setting": "[5]; singletons plus twins", "value": 6}, {"measurement": "male offspring, final gender distribution", "setting": "[5]; singletons plus twins", "value": 15}, {"measurement": "female offspring", "setting": "[5]; [11]", "value": 5}, {"measurement": "male offspring", "setting": "[5]; [11]", "value": 11}, {"measurement": "miscarriage rate (calculated on reanalysis)", "setting": "[6]", "value": 28.5, "unit": "%"}]}]}
